Data set [1] concerns γ-glutamyl transpeptidase (GGT). As to the kind of experiment: γ-Glutamyl transpeptidase (GGT) enzyme recognition test. In kind it is biochemical. To be noted: 0.34 mg/mL DMSO solution diluted with PBS + 0.227 mg/mL GGT solution, 37° C. How it is done: To 0.150 mL of this doxorubicin-bonded glutamic acid derivative (prodrug) PBS solution, 0.150 mL of a 2 U/mL GGT solution obtained by dissolving GGT (0.22 mg, 8 U/mg) (Sigma-Aldrich Company) in PBS (0.880 mL) was added, and the mixture was allowed to react at 37° C.
The reaction liquid was analyzed by HPLC, and thus the residual ratio of the doxorubicin-bonded glutamic acid derivative (prodrug) and the production ratio of doxorubicin were determined.
To 0.100 mL of the doxorubicin-bonded glutamic acid derivative PBS solution, 0.100 mL of a 2 U/mL GGT solution obtained by dissolving GGT (0.38 mg, 8 U/mg) (Sigma-Aldrich Company) in PBS (1.520 mL) was added, and the mixture was allowed to react at 37° C. […]

The nature of data set [2]: Phosphate buffered physiological saline (PBS) solution stability test. In kind it is physicochemical. To be noted: PBS (DMSO stock), 37° C., after 24 hours. On the procedure: 0.148 mL of the doxorubicin-bonded glutamic acid derivative PBS solution was dissolved in 0.148 mL of a PBS solution, and the solution was allowed to react at 37° C.
PBS (0.100 mL) was added to the EHC-bonded glutamic acid derivative solution (0.100 mL), and the mixture was allowed to react at 37° C. The reaction liquid was analyzed by HPLC, and thereby the residual ratio of the EHC-bonded glutamic acid derivative was determined.
PBS (0.117 mL) was added to the camptothecin-bonded glutamic acid derivative solution (0.117 mL), and the mixture was allowed to react at 37° C. The reaction liquid was analyzed by HPLC, and thereby the residual ratio of the glutamic acid derivative was determined.
The reaction liquid was analyzed by HPLC, and thereby the residual ratio of the EHC-bonded glutamic acid derivative was determined.

The format of data set [3] is in vitro ADME. To be noted: 24 h, 0.0856 mg/mL. How it is done: Mouse blood plasma (0.180 mL) was added to a 0.856 mg/mL DMSO solution of the EHC-bonded glutamic acid derivative of Synthesis Example 6 (0.020 mL), and the mixture was allowed to react at 37° C.
The reaction liquid was analyzed by HPLC, and thereby the residual ratio of the EHC-bonded glutamic acid derivative was determined. 94% of the EHC-bonded glutamic acid derivative prodrug remained after 24 hours.

In data set [4] the test system is OS-RC-2 cells having high GGT activity. As to the kind of experiment: cells. In kind it is cell-based, human. To be noted: Homo sapiens, OS-RC-2, read-out: Cell proliferation inhibitory activity. How it is done: (§1) After the cells were incubated for 6 hours, the interior of the wells was washed, and after the cells were further incubated for 3 days, the cells were immobilized with methanol and stained using Methylene Blue dye. After staining, the dye was extracted with a 0.3% aqueous solution of hydrochloric acid was extracted, and the light absorbance at 660 nm was measured. For the light absorbance thus obtained, the cell proliferation suppressive activity was evaluated based on the reduction ratio for the light absorbance measured from cells to which the compound was not added.
(§2) By a similar operation, the cell proliferation suppressive activity was evaluated from the light absorbance, using doxorubicin that was not converted to a glutamic acid derivative. The results are shown in FIG. 1 (OS-RC-2 cells having high GGT activity) and FIG. 2 (SK-OV-3 cells having low GGT activity).
(§3) The cell proliferation inhibitory activity of the EHC-bonded glutamic acid derivative according to Synthesis Example 6 was evaluated using OS-RC-2 cells (RIKEN BioResource Center), which are known to have high GGT activity, and SK-OV-3 cells (American Type Culture Collection), which are known to have low GGT activity.
(§4) On a 96-well plate, OS-RC-2 cells having high GGT activity and SK-OV-3 cells having low GGT activity were each inoculated in an amount of 4,000 cells/well and were incubated for one day at 37° C. and 5% CO2, and then the EHC prodrug according to Synthesis Example 6 was added to the cells at a final concentration of 0.0001 to 1 μM. After the cells were incubated for 6 hours, the interior of the wells was washed, and the cells were further incubated for 3 days. After the incubation, the cells were immobilized with methanol and were stained using Methylene Blue dye. After staining, the dye was extracted with a 0.3% aqueous solution of hydrochloric acid, and the light absorbance at 660 nm was measured. The cell proliferation suppressive activity was evaluated based on the reduction ratio for the light absorbance thus obtained, with respect to the light absorbance measured from cells to which the compound was not added.
(§5) By a similar operation, EHC, which was an active ingredient of Synthesis Example 6, was used without modification, and the cell proliferation suppressive activity was evaluated from the light absorbance.

In data set [5] the test system is SK-OV-3 cells having low GGT activity. As to the kind of experiment: cells. To be noted: Homo sapiens, SK-OV-3, read-out: Cell proliferation inhibitory activity. In kind it is cell-based. How it is done: as §1, §2, §3, §4, §5
In data set [6] the test system is OS-RC-2 cells having high GGT activity. In kind it is cell-based, human. To be noted: GGsTop 10 μM, compound 0.0001 to 1 μM. How it is done: OS-RC-2 cells were inoculated by a method similar to that of Test Example 3. […] After the cells were incubated for 6 hours, the interior of the wells was washed, and after the cells were further incubated for 3 days, the cell proliferation suppressive activity was evaluated by a method similar to that of Test Example 3.
By a similar operation, the cell proliferation suppressive activity was evaluated using doxorubicin that was not glutamic acid-derivatized, from the light absorbance of the compound.
The GGT activity dependency of the cell proliferation inhibitory activity of the EHC-bonded glutamic acid derivative according to Synthesis Example 6 was evaluated using OS-RC-2 cells having high GGT activity.
OS-RC-2 cells were inoculated by a method similar to that of Test Example 10. After the cells were incubated for one day, GGsTop (Wako Pure Chemical Industries, Ltd.), which is a GGT inhibitor, was added to the cells at a final concentration of 10 μM, and the cells were incubated for one hour. Subsequently, the EHC-bonded glutamic acid derivative according to Synthesis Example 6 was added to the cells at a final concentration of 0.0001 to 1 μM. After the cells were incubated for 6 hours, the interior of the wells was washed, and after the cells were incubated for 3 days, the cell proliferation suppressive activity was evaluated by a method similar to that of Test Example 10.
By a similar operation, the cell proliferation suppressive activity was evaluated using EHC, which is the active ingredient of Synthesis Example 6, from the light absorbance of the compound.

The nature of data set [7]: Test on pharmacokinetics of Synthesis Example 6 (tissue AUC, OS-RC-2 tumor-bearing mice). Also noted: species or system SCID mice. To be noted: mouse, in vivo. On the procedure: Human renal cell cancer OS-RC-2 tumors that had been subcutaneously subcultured in SCID mice were produced into blocks that measured about 2 mm on each side, and the blocks were subcutaneously transplanted into SCID mice using a trocar.
At time points of 5 minutes, 1 hour, 3 hours, and 6 hours after the administration, various tissues such as blood plasma, liver, bone marrow, and tumor were collected under ether anesthesia. The drug concentrations of EHC as an active drug of Synthesis Example 6, the unchanged drug of Synthesis Example 6, and the unchanged drug of CPT-11 in the various tissues were quantitatively analyzed by a LC-MS/MS method under the following measuring instrument and conditions.
From the concentrations of EHC, the EHC-bonded glutamic acid derivative according to Synthesis Example 6, and CPT-11 in the tissues at various time points, the AUC0-6 hr (μg·hr/mL or g) values of the various components up to 6 hours after the initiation of administration were calculated. As the prodrug activation rates of Synthesis Example 6 and CPT-11 in the various tissues, the AUC0-6 hr ratios of the active drug with respect to the unchanged drug (AUCEHC/AUCSynthesis Example 6 unchanged drug, and AUCEHC/AUCCPT-11) were determined.

Data set [8] has as its system human renal cell cancer OS-RC-2. Briefly: Test on antitumor effect of Synthesis Example 6, OS-RC-2. In kind it is in vivo, SCID mice. To be noted: three times at an interval of 4 days. How it is done:
By an operation similar to that of Test Example 15, to those mice having human renal cell cancer OS-RC-2 transplanted thereinto, the EHC-bonded glutamic acid derivative of Synthesis Example 6 was intravenously administered through the caudal vein, on the 17th day after tumor transplantation, at a dose of 20, 40, or 80 mg/kg three times in total at an interval of 4 days.
(§6) After the administration, the major axis (L) and the minor axis (W) of a tumor were measured using calipers at an interval of 2 to 3 days, the tumor volume was calculated by the formula: (L×W^2)/2, and the tumor volume change rate from the administration initiation day was determined.

The test system of data set [9] is Human renal cell cancer OS-RC-2. Briefly: Test on antitumor effect of Example 6, OS-RC-2. In kind it is in vivo, nude mice. To be noted: 20 mg/kg in terms of epirubicin, i.v. once. On the procedure:
Human renal cell cancer OS-RC-2 was transplanted into nude mice similarly to Test Example 15, and after tumor engraftment was confirmed, the composition of Example 6 according to the present invention was dissolved in 5% glucose. The solution was intravenously administered through the caudal vein once at a dose of 10 or 20 mg/kg in terms of epirubicin. Furthermore, as a control drug, epirubicin hydrochloride was dissolved in a physiological solution, and the solution was intravenously administered through the caudal vein once at a dose of 10 or 20 mg/kg in terms of epirubicin.
as §6

Structures can show the parent of a compound that is named as a salt.

Turning to `CCc1c2c(nc3ccc(OCc4ccc(NC(=O)CC[C@H](N)C(=O)O)cc4)cc13)-c1cc3c(c(=O)n1C2)COC(=O)[C@]3(O)CC` [Synthesis Example 6, 10-(4-((S)-4-amino-4-carboxybutanamido)benzyloxy)-7-ethylcamptothecin ditrifluoroacetate], in [1], the “Disappearance of the glutamic acid derivative and production of EHC by GGT” value was “rapidly disappeared in one hour of the reaction and produced EHC”. The “Residual ratio of the glutamic acid derivative in PBS” value in data set [2] came out at 90%. Also, the “Residual ratio of the glutamic acid derivative in mouse blood plasma” value in data set [3] stood at 94%. The inhibition at 0.01 µM in data set [4] came to 25%; in data set [5], 1.3%. In addition, the “Effect of GGT inhibitor on cell proliferation suppressive activity” value in data set [6] was “inhibited the activity”. In addition, the “Activation rate AUCEHC/AUC unchanged drug” value in data set [7] was 0.03-0.16 times. The “Antitumor effect (relative tumor volume)” value in data set [8] (80 mg/kg-administered group, i.v.) was “noticeable tumor regression effect”; in [8] (20, 40, or 80 mg/kg i.v.), “dose-dependent antitumor effect”.
`COc1cccc2c1C(=O)c1c(O)c3c(c(O)c1C2=O)C[C@@](O)(C(=O)CO)C[C@@H]3O[C@H]1C[C@H](N)[C@@H](O)[C@H](C)O1` [epirubicin hydrochloride]: the “Toxicity (death of mice)” value in data set [9] is given as “the mice died 8 days after the administration due to toxicity”.

For the origin of these results see patent US20200190101A1, “Composition Containing Novel Glutamic Acid Derivative And Block Copolymer, And Use Thereof” (Nippon Kayaku Kabushiki Kaisha, priority 2015, published 2020).
